Test results published in ChEMBL document CHEMBL2086390, “Design, synthesis and structure-activity relationships of novel benzoxazolone derivatives as 18 kDa translocator protein (TSPO) ligands” (Bioorg Med Chem, 2012).
In brackets after ≈: the same amount, converted by molar mass. Each block holds one compound with its values, some of them ahead of it.

Columns and labels:
[1] = Tmax in rat at 10 mg/kg, po; type: ADME, organism-based; set-up: dose 10 mg/kg, route oral; conditions: in vivo
[2] = tested on: Rattus norvegicus; assay: AUC in rat at 1 mg/kg, iv; type: ADME, organism-based, Plasma; set-up: dose 1 mg/kg, route intravenous; conditions: in vivo
[3] = Cmax in rat at 10 mg/kg, po; type: ADME, organism-based; set-up: dose 10 mg/kg, route oral; conditions: in vivo
[4] = AUC in rat at 10 mg/kg, po; type: ADME, organism-based; set-up: dose 10 mg/kg, route oral; conditions: plasma
[5] = Ratio of AUC in brain to AUC in plasma of rat at 10 mg/kg, po; type: ADME, organism-based; set-up: dose 10 mg/kg, route oral; conditions: brain and plasma
[6] = Oral bioavailability in rat at 10 mg/kg; type: ADME, organism-based; conditions: in vivo
[7] = Volume of distribution at steady state in rat at 1 mg/kg, iv; type: ADME, organism-based; set-up: dose 1 mg/kg, route intravenous; conditions: in vivo, read-out: Vdss
[8] = Aqueous solubility of the compound at pH 2.5; type: physicochemical; conditions: aqueous solution
[9] = Aqueous solubility of the compound at pH 7.4; type: physicochemical; conditions: aqueous solution

- Tmax [1]: 1 h
- AUC [2]: 6042 ng·h/mL
- Cmax [3]: 50.4 ng/mL
- AUC [4]: 8370 ng·h/mL
- Kp [5]: 0.63
- bioavailability [6]: 13.9%
- Vd [7]: 4.4 L/kg
Compound: CN(C(=O)Cn1c(=O)oc2ccc(-c3cccnc3)cc21)c1ccccc1.Cl

- solubility [8]: 440 µg/mL (≈ 1220 µM)
Compound: CN(C(=O)Cn1c(=O)oc2ccc(-c3cccnc3)cc21)c1ccccc1

- solubility [9]: 45 µg/mL (≈ 125 µM)
Compound: CN(C(=O)Cn1c(=O)oc2ccc(-c3ccccc3)cc21)c1cccnc1

- solubility [9]: < 1 µg/mL
Compound: CN(C(=O)Cn1c(=O)oc2ccc(-c3ccccc3)cc21)c1ccccc1
